These results are taken from patent publication EP0042553B1, “Antitumor compositions” (Bristol-Myers Company, priority 1980, dated 1981).

Where a name gives a salt, the structure may show the parent alone. Bounds are passed on as bounds.

The conditions of data set [1]: prior art statement; cited from earlier work.
Data set [2] in a line: Solubility in water. It is filed as physicochemical.
Data set [3] is described as follows: Stability / clarity of reconstituted aqueous solution. It is filed as physicochemical. How it is done: Stability: 15 mg salt was reconstituted with 10 ml sterile water.
The product salt may be reconstituted with water to give a 5-7.5 mg/ml solution which remains clear at 17°C for at least 6 hours.
(§1) The above mixture can be rapidly (<3 min.) reconstituted with sterile water. The 50 mg/ml solution and 1, 2, 5 and 10 mg/ml dilutions remain clear for at least 24 hours at 15-20°C.
(§2) The above mixture is made according to the general procedure of Example 5.

The test system of data set [4] is animal tumor systems. Particulars: Cain, et al., Europ. J. Cancer 10:539-549 (1974); cited from earlier work.
The nature of data set [5]: Compatibility with ions in aqueous solution. It is filed as physicochemical. The conditions noted are these: insoluble precipitates form. As to the method: The solid compositions (all three types) provided according to the present invention are reconstituted with sterile water or sterile aqueous vehicle. The preferred unit dosage forms described above may, for example, be reconstituted with one milliliter of sterile water or sterile aqueous vehicle to form relatively concentrated m-AMSA solutions or such solutions may be diluted to form more dilute (e.g. 5 mg/ml m-AMSA activity) solutions. […] Reconstitution, therefore, should be effected with vehicles substantially free of the above-mentioned ions.
Caution: Solutions of m-AMSA are incompatible with chloride, sulfate, phosphate and carbonate ions. Precipitates form.

Data set [6] can be described thus: Reconstitution time with water. It is filed as physicochemical. The conditions noted are these: 5, 7.5 and 10 mg/ml; at 24°C (75°F). How it is done:
Reconstituted aqueous solutions of 5, 7.5 and 10 mg/ml were readily obtained with 3 minutes shaking at 24°C (75°F). Solubility of the salt in water at room temperature is at least 15 mg/ml.
as §1, §2

As for `COc1cc(NS(C)(=O)=O)ccc1Nc1c2ccccc2nc2ccccc12.Cl` [monohydrochloride], in data set [1], the “solubility in water (in words)” value is listed as “insufficiently water-soluble”. `COc1cc(NS(C)(=O)=O)ccc1Nc1c2ccccc2nc2ccccc12` [Preparation 9, Crystalline m-AMSA monogluconate salt] registered a solubility in data set [2] (at 50-60°C) of 30 mg/mL. As for `COc1cc(NS(C)(=O)=O)ccc1Nc1c2ccccc2nc2ccccc12` [Preparation 4, Crystalline L(+)-Monolactate hemiacetonate of m-AMSA], in data set [3] (15 mg salt in 10 ml sterile water, after 2 weeks storage at 45°C), the activity loss was under 6%. Further, in data set [3] (15 mg salt reconstituted with 10 ml sterile water), the “Stability: time the solution was stable” value was “at least 24 hours”.

In the case of `COc1cc(NS(C)(=O)=O)ccc1Nc1c2ccccc2nc2ccccc12.CS(=O)(=O)O` [monomethanesulfonate], in data set [1], the “solubility in water (in words)” value is given as “insufficiently water-soluble”. As to `COc1cc(NS(C)(=O)=O)ccc1Nc1c2ccccc2nc2ccccc12` [m-AMSA, 4'-(9-acridinylamino)-methanesulfon-m-anisidide], the “solubility in water (in words)” value in data set [1] is given as “very limited”. Moreover, the antitumor activity entry in data set [4] is “significant antitumor activity”. Further, in data set [5], the “compatibility in aqueous solution with chloride, sulfate, phosphate and carbonate ions” value is “incompatible”.

Take `COc1cc(NS(C)(=O)=O)ccc1Nc1c2ccccc2nc2ccccc12` [Preparation 6, Crystalline DL-Monolactate acetone solvate of m-AMSA]: the “shaking time to obtain reconstituted aqueous solutions” value in data set [6] was found to be 3 min. Also, the “time solution remains clear” value in data set [3] (5-7.5 mg/ml solution in water at 17°C) is on record as “at least 6 hours”. The same compound came in with a solubility in data set [2] (at room temperature) of at least 15 mg/mL.
